Results published in patent US20180200257A1, “METHODS FOR THE TREATMENT OF INFLAMMATORY DISORDERS” (Galapagos NV, priority 2015, published 2018).

Tested on: subjects with moderately to severely active RA who have an inadequate response to methotrexate (MTX)
Assay: Study 2 (monotherapy) - DAS28(CRP) scores
Type: in vivo, human
Source text: Randomized, double-blind, placebo-controlled, multicenter, phase IIb dose finding study of Compound 1 (dosed as a [Compound 1:HCl:3H2O]) administered for 24 weeks as monotherapy to subjects with moderately to severely active rheumatoid arthritis who have an inadequate response to methotrexate alone
Double-blind, placebo-controlled, monotherapy study in subjects with moderately to severely active RA who have an inadequate response to methotrexate (MTX) (oral or parenteral).
280 subjects randomized to one of 3 doses of Compound 1 (dosed as a [Compound 1:HCl:3H2O]) or to placebo, given once daily (q.d.).
Twelve weeks of treatment with Compound 1 (dosed as a [Compound 1:HCl:3H2O]) at 50 mg, 100 mg, or 200 mg q.d.; or placebo. At Week 12, all subjects on placebo and the subjects on the 50 mg dose who have not achieved 20% improvement in swollen joint count (SJC66) and tender joint count (TJC68) will be assigned to 100 mg q.d. in a blinded fashion and will continue treatment until Week 24. Subjects in the other groups will maintain their randomized treatment until Week 24.
The (DAS28(CRP)) is a system developed and validated by the European League Against Rheumatism (EULAR) to measure the progress and improvement of rheumatoid arthritis and has been extensively validated (Wells et al., 2008). The DAS28(CRP) scoring includes a 28 tender and swollen joint count, CRP measurement from blood analysis, and a general health assessment on a visual analog scale (Fransen et al., 2003).
DAS28(CRP) values range from 2.0 to 10.0, and more particularly reflect the following status: • Remission: DAS28(CRP) ≤2.6 • Low Disease activity: 2.6 <DAS28(CRP) ≤3.2 • Moderate Disease Activity: 3.2 <DAS28(CRP) ≤5.1 • High Disease Activity: DAS28(CRP) >5.1
In practice, the DAS28(CRP) measurement involves the evaluation 28 different joints including in the measurement (proximal interphalangeal joints (10 joints), metacarpophalangeal joints (10), wrists (2), elbows (2), shoulders (2), and knees (2)). When looking at these joints, both the number of joints with tenderness upon touching and swelling are counted.
Secondly, C-reactive protein level is measured.
Finally, the patient makes a subjective assessment of disease activity during the preceding 7 days on a scale between 0 and 100, where 0 is “no activity” and 100 is “highest activity possible”.
The DAS28(CRP) score is then calculated as follows:
Firstly, the patient is asked to make a vertical mark on a 100 mm Visual Analog Scale (VAS) corresponding to their general health or global disease activity on a touch screen to measure the VAS value, which is used in the formula below.
Secondly, a swollen and tender joint examination is then performed on the patient. The swollen and tender joints are recorded. From this examination are obtained the total amount of swollen joints (SJC) and the total amount of tender joints (TJC), which are used in the formula below.
Thirdly, C-reactive protein (CRP) levels are measured.
Finally, the values obtained above (VAS, TJC28, SJC28, and CRP) are computed into the following Formula to obtain the DAS28(CRP) score.
DAS28(CRP)=0.56*√{square root over (TJC28)}+0.28√{square root over (SJC28)}+[…] ln(CRP+1)+0.014*VAS
The improvement (decreases) in the DAS28(CRP) scores for each patient group at weeks 1, 2, 4, 8 and 12 is shown in Table LXXXVII and Table LXXXVIII below, together with the Hommel-corrected p-value for the pairwise comparisons of each group with placebo.
The number of subjects (N) provided in each groups corresponds to the number of subjects starting the study in each group, and the DAS28 (CRP) data reported below corresponds to the responding subjects continuing for the entire 24 weeks on their initial treatment course.

## O=C(Nc1nc2cccc(-c3ccc(CN4CCS(=O)(=O)CC4)cc3)n2n1)C1CC1 [Compound 1, cyclopropanecarboxylic acid {5-[4-(1,1-dioxo-thiomorpholin-4-ylmethyl)-phenyl]-[1,2,4]triazolo[1,5-a]pyridin-2-yl}-amide]
50 mg q.d., week 1, 12 weeks results
  DAS28(CRP) mean CFB (LOCF): −0.70
50 mg q.d., week 2, 12 weeks results
  DAS28(CRP) mean CFB (LOCF): −0.97
50 mg q.d., week 2, 24 weeks results
  DAS28(CRP) mean CFB (LOCF): −1.03
50 mg q.d., week 4, 12 weeks results
  DAS28(CRP) mean CFB (LOCF): −1.37
50 mg q.d., week 4, 24 weeks results
  DAS28(CRP) mean CFB (LOCF): −1.43
50 mg q.d., week 12, 12 weeks results
  DAS28(CRP) mean CFB (LOCF): −1.69
50 mg q.d., 12 weeks results
  % patients reaching low disease activity and/or remission at week 12 (LOCF): 24%
  % patients reaching low disease activity at week 12 (LOCF): 13%
  % patients reaching remission at week 12 (LOCF): 11%
50 mg q.d., 24 weeks results
  % patients reaching low disease activity and/or remission at week 24 (LOCF): 36%
  % patients reaching low disease activity at week 24 (LOCF): 17%
  % patients reaching remission at week 24 (LOCF): 19%
50 mg q.d., week 8, 12 weeks results
  DAS28(CRP) mean CFB (LOCF): −1.65
50 mg q.d., week 8, 24 weeks results
  DAS28(CRP) mean CFB (LOCF): −1.71
100 mg q.d., week 1, 12 weeks results
  DAS28(CRP) mean CFB (LOCF): −0.88
100 mg q.d., week 2, 12 weeks results
  DAS28(CRP) mean CFB (LOCF): −1.04
100 mg q.d., week 2, 24 weeks results
  DAS28(CRP) mean CFB (LOCF): −1.04
100 mg q.d., week 4, 12 weeks results
  DAS28(CRP) mean CFB (LOCF): −1.50
100 mg q.d., week 4, 24 weeks results
  DAS28(CRP) mean CFB (LOCF): −1.48
100 mg q.d., week 12, 12 weeks results
  DAS28(CRP) mean CFB (LOCF): −2.04
100 mg q.d., 12 weeks results
  % patients reaching low disease activity and/or remission at week 12 (LOCF): 28%
  % patients reaching low disease activity at week 12 (LOCF): 13%
  % patients reaching remission at week 12 (LOCF): 14%
100 mg q.d., 24 weeks results
  % patients reaching low disease activity and/or remission at week 24 (LOCF): 50%
  % patients reaching low disease activity at week 24 (LOCF): 29%
  % patients reaching remission at week 24 (LOCF): 21%
100 mg q.d., week 8, 12 weeks results
  DAS28(CRP) mean CFB (LOCF): −1.91
200 mg q.d., week 1, 12 weeks results
  DAS28(CRP) mean CFB (LOCF): −1.15
200 mg q.d., week 2, 12 weeks results
  DAS28(CRP) mean CFB (LOCF): −1.54
200 mg q.d., week 2, 24 weeks results
  DAS28(CRP) mean CFB (LOCF): −1.55
200 mg q.d., week 4, 12 weeks results
  DAS28(CRP) mean CFB (LOCF): −1.87
200 mg q.d., week 4, 24 weeks results
  DAS28(CRP) mean CFB (LOCF): −1.87
200 mg q.d., week 12, 12 weeks results
  DAS28(CRP) mean CFB (LOCF): −2.33
200 mg q.d., 12 weeks results
  % patients reaching low disease activity and/or remission at week 12 (LOCF): 45%
  % patients reaching low disease activity at week 12 (LOCF): 28%
  % patients reaching remission at week 12 (LOCF): 17%
200 mg q.d., 24 weeks results
  % patients reaching low disease activity and/or remission at week 24 (LOCF): 46%
  % patients reaching low disease activity at week 24 (LOCF): 19%
  % patients reaching remission at week 24 (LOCF): 28%
200 mg q.d., week 8, 12 weeks results
  DAS28(CRP) mean CFB (LOCF): −2.24
